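Protocol summary: plate cells (96-well), add compound at 5 concentrations, incubate 48 h, interpolate endpoints linearly. The concentration for 50% growth inhibition is given as GI50. TGI: total growth inhibition.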
Assays:
Assay in all cases: NCI anticancer screen, dose series, 48 h
[1] = tested on: T-47D breast
[2] = tested on: NCI-H460 lung
[3] = tested on: MALME-3M melanoma
[4] = tested on: SK-MEL-2 melanoma
[5] = tested on: UACC-62 melanoma
[6] = tested on: M14 melanoma
[7] = tested on: TK-10 renal
[8] = tested on: CCRF-CEM leukemia
[9] = tested on: MCF7 breast
[10] = tested on: RXF 393 renal

SMILES | TGI [1] | TGI [2] | TGI [3] | TGI [4] | TGI [5] | TGI [6] | TGI [7] | TGI [8] | TGI [9] | GI50 [1] | GI50 [2] | GI50 [4] | GI50 [5] | GI50 [6] | GI50 [7] | GI50 [8] | GI50 [10] | TGI [10] | GI50 [9] | GI50 [3]
CCc1ccccc1NC(=O)/C=C/c1ccccc1 | > 100 µM | > 100 µM | > 100 µM | > 100 µM | > 100 µM | > 100 µM | > 100 µM | > 100 µM | > 100 µM | – | – | – | – | – | – | – | – | – | – | –
NS(=O)(=O)c1ccc(N2N=C3c4ccccc4CC3C2c2cccs2)cc1 (configuration not stated) | > 100 µM | > 100 µM | – | > 100 µM | 44.3 µM | > 100 µM | 34.1 µM | > 100 µM | > 100 µM | 66.9 µM | > 100 µM | > 100 µM | 21.8 µM | 26 µM | 13.2 µM | 31.8 µM | 20.6 µM | 62.6 µM | > 100 µM | –
COc1ccc2c(c1OC)-c1c(c3ccc([N+](=O)[O-])cc3c(=O)n1CCCBr)C2=O | > 100 µM | 68.8 µM | > 100 µM | > 100 µM | 76.1 µM | > 100 µM | > 100 µM | 80.9 µM | 20.6 µM | 97.3 µM | 6.64 µM | > 100 µM | 18.1 µM | 27.2 µM | > 100 µM | 16.9 µM | – | – | 3.66 µM | 79.9 µM
COC(=O)CCC12CCC(=O)C1[C@@H](C(=O)OC)C[C@H]2C(=O)OC (some centres not stated) | – | > 100 µM | > 100 µM | > 100 µM | > 100 µM | > 100 µM | > 100 µM | > 100 µM | – | – | – | – | – | – | – | – | – | > 100 µM | – | –
CCOC(=O)CCC1(C(=O)OCC)CCCC1=O (configuration not stated) | – | > 100 µM | > 100 µM | > 100 µM | > 100 µM | > 100 µM | > 100 µM | > 100 µM | – | – | – | – | – | – | – | – | – | > 100 µM | – | –
N#C/C(=C\c1cccc(O)c1O)C(N)=O | – | > 100 µM | > 100 µM | > 100 µM | > 100 µM | > 100 µM | > 100 µM | 45.3 µM | – | – | – | – | – | – | – | – | – | 28 µM | – | –
CN(C)/C=N\c1ccnc(=O)[nH]1 | – | > 100 µM | > 100 µM | > 100 µM | > 100 µM | > 100 µM | > 100 µM | > 100 µM | – | – | – | – | – | – | – | – | – | > 100 µM | – | –
CC1(c2cc3c(cc2Br)OCO3)SCCCS1 | – | > 100 µM | – | 88.3 µM | > 100 µM | > 100 µM | > 100 µM | > 100 µM | – | – | – | – | – | – | – | – | – | 37.3 µM | – | –
COc1ccc(OC(C(=O)O)C(C)C)c2c1CCCC2=O (configuration not stated) | – | > 100 µM | > 100 µM | > 100 µM | > 100 µM | > 100 µM | > 100 µM | > 100 µM | – | – | – | – | – | – | – | – | – | – | – | –
Cc1c2c(cc3c1C(=O)C(=O)C1=C3OC[C@@H]1C)C(C)(C)CCC2 | – | 28.1 µM | 29 µM | 21.2 µM | 25.9 µM | 26.9 µM | 56.7 µM | 42 µM | – | – | – | – | – | – | – | – | – | 33.5 µM | – | –
C#CCNC(=O)ON1C(=O)CCC1=O | – | > 100 µM | > 100 µM | > 100 µM | > 100 µM | – | > 100 µM | > 100 µM | – | – | – | – | – | – | – | – | – | > 100 µM | – | –
COc1ccc(NC(=O)/C=C(C)/C=C/C=C(C)/C=C/C2=C(C)CCCC2(C)C)cc1 | 16.1 µM | 26.9 µM | 65.4 µM | 26.2 µM | 22.9 µM | – | 58.2 µM | 4.67 µM | 12.4 µM | 3.75 µM | 12.8 µM | 13.3 µM | 10.7 µM | – | 37.5 µM | 2.05 µM | 12.8 µM | 26.2 µM | 3.28 µM | 38.9 µM
Cc1cc(C)nc(/C(=N\NC(N)=O)C(=O)Nc2nc3ccc(C)cc3s2)c1 | – | > 100 µM | > 100 µM | > 100 µM | > 100 µM | > 100 µM | > 100 µM | > 77.8 µM | – | – | – | – | – | – | – | – | – | > 100 µM | – | –
COc1ccc(-c2cc(C(=O)Nc3cc(C(F)(F)F)cc(C(F)(F)F)c3)c3ccccc3n2)cc1 | – | 19.4 µM | 46.4 µM | 30.6 µM | > 100 µM | 25 µM | 29.5 µM | > 100 µM | – | – | – | – | – | – | – | – | – | 21 µM | – | –
O=c1nc(-c2ccccc2)cc(CC(O)c2ccc(Cl)c(Cl)c2)[nH]1 (configuration not stated) | – | > 100 µM | > 100 µM | 65.3 µM | > 100 µM | > 100 µM | > 100 µM | > 100 µM | – | – | – | – | – | – | – | – | – | > 100 µM | – | –
Cl/C(N=Nc1ccccc1)=N/Nc1ccccc1 | – | > 100 µM | > 100 µM | > 100 µM | – | – | > 100 µM | > 100 µM | – | – | – | – | – | – | – | – | – | > 100 µM | – | –
[O-]c1ccccc1C=Nc1ccc2c(c1)CCC2.[O-]c1ccccc1C=Nc1ccc2c(c1)CCC2.[O]=[U+2]=[O] | – | > 100 µM | > 100 µM | > 100 µM | > 100 µM | > 100 µM | 82.2 µM | > 100 µM | – | – | 47.3 µM | > 100 µM | > 100 µM | > 100 µM | 30.1 µM | 8.39 µM | > 100 µM | > 100 µM | – | > 100 µM
COC(=O)c1cc2c(cc1Cl)SC1=NN(C)S(=O)N1S2(=O)=O (configuration not stated) | > 100 µM | > 100 µM | > 100 µM | > 100 µM | > 100 µM | > 100 µM | > 100 µM | > 100 µM | > 100 µM | > 100 µM | > 100 µM | > 100 µM | > 100 µM | > 100 µM | > 100 µM | > 100 µM | – | – | > 100 µM | > 100 µM
Cc1cccc2c1c1ccc3c(c1n2C)C(=O)C=CC3=O | – | 37.8 µM | 14 µM | 33.6 µM | 26.5 µM | 17.9 µM | 7.19 µM | 3.25 µM | – | – | – | – | – | – | – | – | – | 7.86 µM | – | –
CNc1ccc2ncccc2c1[N+](=O)[O-] | – | > 100 µM | > 100 µM | > 100 µM | > 100 µM | > 100 µM | > 100 µM | > 100 µM | – | – | – | – | – | – | – | – | – | > 100 µM | – | –
COC(=O)C1C(=O)CC2CCCCC21 (configuration not stated) | – | > 100 µM | > 100 µM | > 100 µM | > 100 µM | > 100 µM | > 100 µM | > 100 µM | – | – | – | – | – | – | – | – | – | > 100 µM | – | –
